# Patent publication US20150254400A1, “GROUPING FOR C[…] CANCER” (AGENCY FOR SCIENCE, TECHNOLOGY AND RESEARCH, priority 2012, published 2015)
# Entries after “also recorded” stand apart in the source; their conditions may differ.
# Assays:
# gastric adenocarcinoma = assay: Patient survival, surgery plus adjuvant 5-FU based therapy versus surgery alone (Kaplan-Meier, Cox regression); format: in vivo, human; details: for HR (95% CI): Multivariate Cox (treatment + stage)
# Experimental: A study was done to determine whether there was a difference in survival among the three subtypes. In this study, cancer-specific death was considered as an event unless stated otherwise.
# Data from 188 patients in the SG201 Singapore cohort for which survival information was available was analyzed.
# Many of the patients in the Singapore cohort were treated with 5-FU. To investigate the effect of 5-FU treatment on patient survival, the survival of Singapore and Australian patients treated with surgery alone were compared to that of patients treated by surgery and adjuvant 5-FU based therapy.
# The clinical decision on administration of 5-FU was based on multiple factors, including the patient's general health, risk of relapse (estimated largely by disease stage), treatment-related toxicities, and patient preference.
# FIGS. 8A to F show Kaplan-Meier plots for surgery plus 5-FU versus surgery alone for each of the three subtypes.
# [1] = system: gastric cancer cell lines; assay: 5-FU sensitivity in vitro of gastric cancer cell lines assigned to the three subtypes by GCPred; format: cell-based
# Source text: It was then examined whether there are differences in 5-FU sensitivity, in vitro, between gastric cancer cell lines assigned to the three subtypes.
# GCPred was first used to predict the subtypes of 28 cell lines for which 5-FU GI50 values had previously been determined.
# NCI-60 cell lines = assay: 5-FU sensitivity of NCI-60 cell lines classified into the three subtypes by GCPred; format: cell-based; details: metabolic versus invasive subtype NCI-60 cells, Wilcoxon rank sum test p=0.036
# Source text: In addition, GCPred was used to classify the NCI-60 cell lines into the three subtypes.
smiles,measurement,setting,value
"O=c1[nH]cc(F)c(=O)[nH]1 [5-FU, 5-fluorouracil]","Hazard Ratio (95% CI), treatment","gastric adenocarcinoma; 197 patients in SG and AU cohorts, model ~subtype * treatment + stage, 5-FU vs surgery alone (=1)","1.437 (0.728, 2.835)"
same,"Hazard Ratio (95% CI), subtype: treatment interaction, Invasive: 5-FU","gastric adenocarcinoma; 197 patients in SG and AU cohorts, model ~subtype * treatment + stage, reference Proliferative: 5-FU (=1)","0.722 (0.287, 1.817)"
same,HR (95% CI),"gastric adenocarcinoma; Australian cohort, invasive subtype, 5-FU vs surgery alone (=1)","0.222 (0.059, 0.833)"
same,HR (95% CI),"gastric adenocarcinoma; Australian cohort, proliferative subtype, 5-FU vs surgery alone (=1)","1.938 (0.369, 10.170)"
same,HR (95% CI),"gastric adenocarcinoma; Singapore cohort, invasive subtype, 5-FU vs surgery alone (=1)","1.062 (0.469, 2.407)"
same,HR (95% CI),"gastric adenocarcinoma; Singapore cohort, proliferative subtype, 5-FU vs surgery alone (=1)","2.105 (0.879, 5.043)"
same,Deaths among 5-FU treated patients,"gastric adenocarcinoma; Singapore cohort, metabolic subtype",no deaths
same,Hazard ratio (95% CI),"gastric adenocarcinoma; Univariate Cox regression, Singapore cohort, all subtypes, 5-FU vs surgery alone (=1), cancer-specific death","1.656 (0.983, 2.788)"
same,5-FU effect on patient survival,gastric adenocarcinoma; invasive subtype,No effect
same,5-FU effect on patient survival,gastric adenocarcinoma; metabolic subtype,Beneficial
same,"Survival, Kaplan-Meier, surgery plus 5-FU versus surgery alone",gastric adenocarcinoma; metabolic-subtype patients,benefited; also recorded: better
same,"Disease-free survival, Kaplan-Meier, 5-FU treatment compared to surgery alone","gastric adenocarcinoma; metabolic-subtype patients, log rank test p=0.025",benefited significantly
same,Benefit from 5-FU treatment by multivariate Cox regression,gastric adenocarcinoma; patients with invasive and proliferative subtypes,does not suggest any benefit
same,"Survival, Kaplan-Meier, surgery plus 5-FU versus surgery alone","gastric adenocarcinoma; patients with invasive and proliferative subtypes, not adjusted for TNM stage",worse
same,5-FU effect on patient survival,gastric adenocarcinoma; proliferative subtype,No effect
same,Sensitivity to 5-FU (GI50 values previously determined),"[1]; 28 cell lines, metabolic versus proliferative subtype cells, Wilcoxon rank sum test p=1.47×10-3",significantly more sensitive
same,Chemosensitivity in cell lines,[1]; metabolic subtype cell lines,5-FU
same,Sensitivity to 5-FU,NCI-60 cell lines,preferential sensitivity
